Results reported in patent US8828987B2, “Pyridine amide derivatives as EP4 receptor antagonists” (Rottapharm Biotech S.R.L., priority 2010, dated 2014).

Columns and labels:
[1] = target: T1, human EP4 receptor (Homo sapiens, UniProt P35408); assay: cAMP assay (AlphaScreen) on human EP4 membrane of transfected cells, antagonism of PGE2; assay type: biochemical; conditions: HEK293 hEP4 cell membrane stimulated with PGE2 3 nM; read-out: functional IC50
T1 construct: expressed in transfected cells; membrane fraction used
Description: (§1) Stable Expression of Human EP4 Receptors in the Human Embryonic Kidney (HEK293) Cell Line
(§2) The cDNA clone of human EP4 receptor (NM_000958.2) was obtained from Invitrogen™: Ultimate™ ORF Clone Collection—Clone ID IOH46525. The coding sequence was subcloned in expression vector pcDNA™6.2/V5-DEST by Gateway technology (Invitrogen™).
(§3) Human embryonic kidney cells (HEK-293) were stably transfected with expression vector for human EP4 receptor in according to the method described in FuGENE®6 Transfection Reagent's manual (Roche Applied Science®).
(§4) Preparation of Membrane Fraction:
(§5) The EP4 transfected cells were grown in Dulbecco's modified Eagle's medium containing 10% fetal bovine serum and 10 μg/ml Blasticidin S HCl (selection medium) at 37° C. in a humidified atmosphere of 5% CO2 in air.
(§6) For the membrane preparation, cells in flask were harvested by hypotonical/mechanical lysis with chilled (4° C.) TE buffer (5 mM TRIS, 5 mM etylenediamine tetra-acetic acid (EDTA), pH 7.4).
(§7) Cells were detached and lysed with 10 ml of hypotonic lysis buffer and by scraping. The cell lysate was vortexed for 30 sec and centrifuged at 40000×g at 4° C. for 22 min.
b) cAMP Assay on Human EP4 Membrane of Transfected Cells.
The assay is based on the competition between endogenous cAMP and exogenously added biotinylated cAMP. The capture of cAMP is achieved by using a specific antibody conjugated to […] beads.
Cell membranes prepared as described above, were resuspended in 1 ml stimulation buffer (HBSS 1×+BSA 0.1%+IBMX 0.5 mM+HEPES 5 mM+MgCl2 10 mM+GTP 1 nM+GDP 10 μM+ATP 100 μM−pH 7.4). Cell membranes were dispensed into white 384-well microplates at final concentration of 1 μg/well and used for the determination of cAMP with the alphascreen cAMP functional assay (EnVision—PerkinElmer). Cell membrane/anti-cAMP Acceptor beads mix (5 μl) and a mixture of analysed compounds (dissolved in 100% DMSO to a final maximal concentration of 0.01% DMSO)/PGE2 (5 μl) were incubated at room temperature (22-23° C.) for 30 min in the dark. The Biotinylated-cAMP and donor beads (15 μl) were dispensed into each well to start the competition reaction. After 1 h incubation RT (22-23° C.) in the dark the plate was read using EnVision platform to determine the cAMP level (excitation: 680 nm; emission: 520,620 nm).
cAMP standard curve (concentration range from 1×10-6 to 1×10-11 M in. log intervals) with a negative control (no cAMP) a positive control:forskolin 10 μM
Antagonism studies were performed stimulating HEK293 cell membrane with PGE2 3 nM. The AlphaScreen signal is plotted as a function of log concentration of cAMP and functional IC50 is determined. IC50 value is calculated by linear regression.
Some compounds were tested according to method of example 83b.

[2] = target: T1, human EP4 receptor; assay: [3H]-Prostaglandin E2 membrane binding assay (human EP4/HEK293 transfectant membranes); conditions: [3H]-PGE2 1 nM, hEP4/HEK293 membranes; Ki by Cheng-Prusoff; read-out: Binding pKi (converted)
Description: as §1, §2, §3, §4, §5, §6, §7
a) Membrane Binding Assay[3H]-Prostaglandin E2
The membrane pellet was resuspended in the same buffer (5 mM TRIS, 5 mM ethylenediamine tetra-acetic acid (EDTA), pH 7.4), and protein concentration was determined by Bradford method (Bio-Bad® assay).
This membrane preparation was stored at −80° C. freezer until use for binding assay.
([^3H]-PGE2) membranes binding assays toward hEP4 receptors (human EP4/HEK293 transfectant, see above) and hEP2 receptors (human EP2/HEK293 transfectant, purchased from PerkinElmer Inc) were performed in 10 mM MES-KOH buffer pH6, containing 10 mM MgCl2 and 1 mM CaCl2 for EP4 binding assay or 50 mM Tris-Cl, BSA 0.5% for EP2 binding assay (according to supplier indication).
Ten microgram of protein from membrane fractions were incubated in a total volume of 0.1 ml (EP4) or 0.2 ml (EP2) with 1 nM (EP4) or 3 nM (EP2) [^3H]-PGE2 (PerkinElmer Inc, 171 Ci/mmol). In both assays to determine the total binding or non specific binding, 1% DMSO or 1 μM prostaglandin E2 (EP4) or 100 μM (EP2) were added to reaction mixtures, respectively. Incubation was conducted in a polypropylene 96 multiwell for 90 min (EP4) or 60 min (EP2) at room temperature prior to separation of the bound and free radioligand by vacuum manifold rapid filtration on glass fiber filters (Unifilter GFB96, PerkinElmer Inc) pre-soaked in 0.3% polyethyleneimine. Filters were washed with ice cold buffer pH 7.4 (50 mM HEPES, NaCl 500 mM, BSA 0.1% for EP4 binding assay or 50 mM Tris-Cl for EP2 binding assays) and the residual [^3H]-PGE2 binding determined by solid scintillation counter (TopCount, PerkinElmer Inc).
The affinity (Ki) of each compound was calculated according to the Cheng-Prousoff equation: Ki=IC50/(1+([C]/Kd)). Results were expressed as pKi (−log 10 Ki (M)
Compounds of example 1 to 82 were tested according to method of example 83a in a final concentration range from 1 nM to 1 μM.

T1 sequence (P35408 whole entry): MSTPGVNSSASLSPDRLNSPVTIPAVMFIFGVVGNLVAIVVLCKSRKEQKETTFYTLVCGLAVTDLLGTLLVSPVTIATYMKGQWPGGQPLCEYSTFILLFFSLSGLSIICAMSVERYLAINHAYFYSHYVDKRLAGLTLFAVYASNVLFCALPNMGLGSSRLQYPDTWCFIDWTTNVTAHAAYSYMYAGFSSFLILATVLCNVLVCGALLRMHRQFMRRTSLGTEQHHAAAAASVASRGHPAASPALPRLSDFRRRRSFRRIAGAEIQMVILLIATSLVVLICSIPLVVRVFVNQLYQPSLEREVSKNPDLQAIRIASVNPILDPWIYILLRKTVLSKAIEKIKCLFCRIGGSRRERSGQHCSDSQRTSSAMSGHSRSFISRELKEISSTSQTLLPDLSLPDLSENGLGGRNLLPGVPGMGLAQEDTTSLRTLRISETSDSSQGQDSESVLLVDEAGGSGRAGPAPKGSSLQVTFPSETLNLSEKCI

SMILES	IC50 [1]	Ki [2]
O=C(O)c1ccc(C2(NC(=O)c3cc(Cl)cnc3N3CC(Oc4cccc(C(F)(F)F)c4)C3)CC2)cc1 [E 14, 4-(1-(5-chloro-2-(3-(3-(trifluoromethyl)phenoxy)azetidin-1-yl)nicotinamido)cyclopropyl)benzoic acid]	38 nM	5.01 nM
O=C(O)c1ccc(C2(NC(=O)c3cc(Cl)cnc3N3CC(Nc4cccc(F)c4)C3)CC2)cc1 [E 32, 4-(1-(5-chloro-2-(3-((3-fluorophenyl)amino)azetidin-1-yl)nicotinamido)cyclopropyl)benzoic acid]	76 nM	25.1 nM
O=C(O)c1ccc(C2(NC(=O)c3cc(Cl)cnc3N3CCC(c4ccccc4)C3)CC2)cc1 (single isomer, unassigned) [E 4, 4-(1-(5-chloro-2-(3-phenylpyrrolidin-1-yl)nicotinamido)cyclopropyl)benzoic acid]	102 nM	200 nM
O=C(O)c1ccc(CNC(=O)c2cc(Cl)cnc2N2CC(Oc3cccc(F)c3)C2)cc1 [E 22, 4-((5-chloro-2-(3-(3-fluorophenoxy)azetidin-1-yl)nicotinamido)methyl)benzoic acid]	119 nM	31.6 nM
Cc1cc(C(F)(F)F)ccc1NC1CN(c2ncc(Cl)cc2C(=O)NC2(c3ccc(C(=O)O)cc3)CC2)C1 [E 36, 4-(1-(5-chloro-2-(3-((2-methyl-4-(trifluoromethyl)phenyl)amino)azetidin-1-yl)nicotinamido)cyclopropyl)benzoic acid]	30 nM	3.98 nM
O=C(O)c1ccc(C2(NC(=O)c3cc(Cl)cnc3N3CC(C(=O)c4cccc(F)c4)C3)CC2)cc1 [E 25, 4-(1-(5-chloro-2-(3-(3-fluorobenzoyl)azetidin-1-yl)nicotinamido)cyclopropyl)benzoic acid]	135 nM	63.1 nM
O=C(O)c1ccc(C2(NC(=O)c3cc(Cl)cnc3N3CC(Nc4cccc(C(F)(F)F)c4)C3)CC2)cc1 [E 31, 4-(1-(5-chloro-2-(3-((3-(trifluoromethyl)phenyl)amino)azetidin-1-yl)nicotinamido)cyclopropyl)benzoic acid]	47 nM	7.94 nM
O=C(O)c1ccc(C2(NC(=O)c3cc(Cl)cnc3N3CC(Nc4ccc(F)cc4F)C3)CC2)cc1 [E 35, 4-(1-(5-chloro-2-(3-((2,4-difluorophenyl)amino)azetidin-1-yl)nicotinamido)cyclopropyl)benzoic acid]	59 nM	6.31 nM
O=C(O)c1ccc(C2(NC(=O)c3cc(Cl)cnc3N3CC(Oc4cccc(N5CCNCC5)c4)C3)CC2)cc1 [E 21, 4-(1-(5-chloro-2-(3-(3-(piperazin-1-yl)phenoxy)azetidin-1-yl)nicotinamido)cyclopropyl)benzoic acid]	191 nM	63.1 nM
O=C(O)c1ccc(C2(NC(=O)c3cc(C(F)(F)F)cnc3N3CC(Oc4ccc(Cl)cc4)C3)CC2)cc1 [E 40, 4-(1-(2-(3-(4-chlorophenoxy)azetidin-1-yl)-5-(trifluoromethyl)nicotinamido)cyclopropyl)benzoic acid]	10 nM	5.01 nM
O=C(O)c1ccc(C2(NC(=O)c3cc(Cl)cnc3N3CCCC3c3ccccc3)CC2)cc1 (single isomer, unassigned) [E 3, 4-(1-(5-chloro-2-(2-phenylpyrrolidin-1-yl)nicotinamido)cyclopropyl)benzoic acid]	133 nM	31.6 nM

The next lines start with the values.

IC50 [1]	Ki [2]	SMILES
7.7 nM	5.01 nM	O=C(O)c1ccc(C2(NC(=O)c3cc(C(F)(F)F)cnc3N3CC(Oc4cccc(Cl)c4)C3)CC2)cc1 [E 41, 4-(1-(2-(3-(3-chlorophenoxy)azetidin-1-yl)-5-(trifluoromethyl)nicotinamido)cyclopropyl)benzoic acid]
24 nM	31.6 nM	O=C(O)c1ccc(C2(NC(=O)c3cc(Cl)cnc3N3CCC(COc4cccc(F)c4)C3)CC2)cc1 (centres unmarked) [E 76, 4-(1-(5-chloro-2-(3-((3-fluorophenoxy)methyl)pyrrolidin-1-yl)nicotinamido)cyclopropyl)benzoic acid]
75 nM	25.1 nM	O=C(O)c1ccc(C2(NC(=O)c3cc(F)cnc3N3CC(Oc4cccc(Cl)c4)C3)CC2)cc1 [E 54, 4-(1-(5-fluoro-2-(3-(3-chlorophenoxy)azetidin-1-yl)nicotinamido)cyclopropyl)benzoic acid]
23 nM	12.6 nM	O=C(O)c1ccc(C2(NC(=O)c3cc(C(F)(F)F)cnc3N3CC(Nc4ccc(F)cc4)C3)CC2)cc1 [E 50, 4-(1-(2-(3-((4-fluorophenyl)amino)azetidin-1-yl)-5-(trifluoromethyl)nicotinamido)cyclopropyl)benzoic acid]
46 nM	25.1 nM	O=C(O)c1ccc(C2(NC(=O)c3cc(Cl)cnc3N3CCC(Oc4ccccc4)C3)CC2)cc1 (single isomer, unassigned) [E 62]
74 nM	20 nM	O=C(O)c1ccc(C2(NC(=O)c3cc(C(F)(F)F)cnc3N3CC(Nc4ccc(F)cc4F)C3)CC2)cc1 [E 52, 4-(1-(2-(3-((2,4-difluorophenyl)amino)azetidin-1-yl)-5-(trifluoromethyl)nicotinamido)cyclopropyl)benzoic acid]
96.5 nM	79.4 nM	O=C(O)c1ccc(C2(NC(=O)c3cc(Cl)cnc3N3CCC(Oc4ccccc4)C3)CC2)cc1 (single isomer, unassigned) [E 60]
145 nM	31.6 nM	O=C(O)c1ccc(C2(NC(=O)c3cc(Cl)cnc3N3CCC(Oc4cccc(C(F)(F)F)c4)C3)CC2)cc1 (single isomer, unassigned) [E 63, 4-(1-(5-chloro-2-(3-(3-(trifluoromethyl)phenoxy)pyrrolidin-1-yl)nicotinamido)cyclopropyl)benzoic acid]
66 nM	31.6 nM	O=C(O)c1ccc(C2(NC(=O)c3cc(Cl)cnc3N3CCC(Oc4ccc(F)cc4)C3)CC2)cc1 (single isomer, unassigned) [E 68, 4-(1-(5-chloro-2-(3-(4-fluorophenoxy)pyrrolidin-1-yl)nicotinamido)cyclopropyl)benzoic acid]
90 nM	10 nM	O=C(O)c1ccc(C2(NC(=O)c3cc(Cl)cnc3N3CCC[C@@H]3COc3cccc(F)c3)CC2)cc1 [E 77, 4 (R)-4-(1-(5-chloro-2-(2-((3-fluorophenoxy)methyl)pyrrolidin-1-yl)nicotinamido)cyclopropyl)benzoic acid]
80 nM	31.6 nM	O=C(O)c1ccc(C2(NC(=O)c3cc(F)cnc3N3CC(Oc4cccc(F)c4)C3)CC2)cc1 [E 53, 4-(1-(5-fluoro-2-(3-(3-fluorophenoxy)azetidin-1-yl)nicotinamido)cyclopropyl)benzoic acid]
